Experimental data from publication PMC9006213, “Multifunctional, Multivalent PIC Polymer Scaffolds for Targeting Antigen-Specific, Autoreactive B Cells” (ACS Biomaterials Science & Engineering, 2022).

What was measured:
B-cell compartments = settings: clinical use; cited from earlier work
Text: These autoreactive MBCs likely exert pathogenic effector functions through the co-stimulation of T cells, the production of pro-inflammatory cytokines, and the recruitment of neutrophils to sites of the local inflammation.[1] The involvement of these cells in the inflammatory disease process is addi ...

[1] = system: patient-derived ACPA and immortalized ACPA-expressing B cells; settings: cited from earlier work
Text: To study the application of PICs for the detection of ACPA-expressing B cells, we prepared a set of fluorescently labeled PICs containing CCP and arginine-containing control peptides (CArgP, Figure 1B), as well as tetrameric CCP-SA and CArgP-SA containing the same fluorophores (Figure 1C).[15] […] In CArgP, the citrulline residue that is essential for recognition by ACPA is replaced by an arginine. Besides the ...

[2] = system: ACPA-expressing B cells in peripheral blood of RA patients; assay: Identification and immunophenotyping of primary ACPA-expressing B cells in peripheral blood of RA patients; format: cell-based, human; settings: median; n = 5; PICs and SA tetramer
Protocol: Having determined the specificity of CCP-PIC-AF647 and its ability to detect small subpopulations of B cells, we used the combination of PICs to identify and characterize the primary ACPA-expressing B cells in the peripheral blood of five RA patients. […] The median frequency was determined at approximately 0.007% cells out of total B cells (Figure 5A,B). To assess whether the characteristics of the patient’s ACPA-expressing B cells were consistent with previous data, we also examined various B-cell subset-defining markers such as CD20, CD27, IgG-class B-cell receptors, and the activation surface marker CD80 (Figure 5B).
Each dot represents one patient sample. Connected dots depict data from individual patient samples. Statistical differences between groups were determined using the Wilcoxon test. (ns, p > 0.05).
To identify and characterize ACPA-expressing B cells in RA blood, PBMC were isolated from peripheral blood of RA donors as above.
For stimulation experiments, ACPA-expressing Ramos B cells were used. Ramos cells were transduced with ACPA-encoding lentiviral vectors 8. Ramos cells were cultured in RPMI 1640 (Thermofisher) supplemented with 8% FCS, 100 U/ml PS, 2 mM GlutaMax and 10 mM HEPES).
To determine which ratio of CCP and fluorophore in PIC to use, two ratios of CCP-AF647 were tested, i.e. 10:1 and 2:1. […]

Substance: Rituximab: broadly B-cell depleting agent approved for clinical use
- depletion of B-cell compartments (B-cell compartments): depletes the naïve and MBC compartments but leaves the compartment of antibody-secreting cells largely intact

Substance: cyclic citrullinated peptide [CCP]
- recognition by ACPA and ACPA-expressing B cells [1]: recognized by both patient-derived ACPA and immortalized ACPA-expressing B cells

Substance: polyisocyanopeptides [PICs]
- ACPA-expressing B cells positive for memory B cell markers CD20 and CD27 [2]: 50%
